From patent US9505728B2, “Triazolone compounds and uses thereof” (INCEPTION 2, INC., priority 2012, dated 2016) come the findings set out here.

SMILES strings stand for the structures.

The target of this test is T1, Human PPARα (Homo sapiens, UniProt Q07869).
T1 construct: host or cells: proprietary non-human mammalian cells
T1 sequence (Q07869 1-468): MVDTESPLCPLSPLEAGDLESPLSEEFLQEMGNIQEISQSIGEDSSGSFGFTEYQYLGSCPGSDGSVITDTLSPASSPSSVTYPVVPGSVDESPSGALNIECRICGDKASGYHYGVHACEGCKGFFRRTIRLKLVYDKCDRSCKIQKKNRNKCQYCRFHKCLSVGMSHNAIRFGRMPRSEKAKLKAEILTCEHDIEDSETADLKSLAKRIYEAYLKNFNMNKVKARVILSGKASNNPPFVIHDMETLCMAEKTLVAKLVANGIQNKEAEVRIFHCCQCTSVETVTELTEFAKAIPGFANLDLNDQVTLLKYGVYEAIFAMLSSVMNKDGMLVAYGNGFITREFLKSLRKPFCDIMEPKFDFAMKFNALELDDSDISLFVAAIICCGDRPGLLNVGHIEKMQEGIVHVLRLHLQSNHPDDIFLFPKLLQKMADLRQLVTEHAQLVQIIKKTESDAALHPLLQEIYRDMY
Kind of test: Human PPARα Reporter Assay (luciferase). In kind it is cell-based. As to conditions: human PPARα reporter cells, overnight incubation, antagonism; read-out: Luciferase IC50. The procedure:
Human PPARα Reporter Assay
The screening of test compounds for agonist or antagonist activities against human PPARα receptors was performed using a commercial kit, Human PPARα Reporter Assay System (Indigo Biosciences, Cat. #IB00111).
This nuclear receptor assay system utilizes proprietary non-human mammalian cells engineered to provide constitutive, high-level expression of Human PPARα. Because these cells incorporate a PPARα-responsive luciferase reporter gene, quantifying expressed luciferase activity provides a sensitive surrogate measure of PPARα activity in the treated cells. The primary application of this reporter assay system is in the screening of test samples to quantify any functional activity, either agonist or antagonist, that they may exert against human PPARα.
Briefly, reporter cells are dispensed into wells of the assay plate and then immediately dosed with test compounds. Following an overnight incubation, the treatment media is discarded and Luciferase Detection Reagent (LDR) is added. The intensity of light emission from the ensuing luciferase reaction provides a sensitive measure that is directly proportional to the relative level of PPARα activation in the reporter cells.
Take `CCn1c(CCCc2ccc(-c3ccc(C(=O)C(=O)NC4CC4)cc3)cc2)nn(Cc2ccc(C(C)(C)C)cc2)c1=O` [Example 52, 2-(4′-(3-(1-(4-(tert-Butyl)benzyl)-4-ethyl-5-oxo-4,5-dihydro-1H-1,2,4-triazol-3-yl)propyl)-[1,1′-biphenyl]-4-yl)-N-cyclopropyl-2-oxoacetamide]: the IC50 came to 440 nM. Next, `CC(C)(C)c1ccc(Cn2nc(CCCc3ccc(-c4cccc(CC(=O)O)c4)cc3)n(CC3CC3)c2=O)cc1` [Example 53, 2-(4′-(3-(1-(4-(tert-Butyl)benzyl)-4-(cyclopropylmethyl)-5-oxo-4,5-dihydro-1H-1,2,4-triazol-3-yl)propyl)-[1,1′-biphenyl]-3-yl)acetic acid]: 363 nM; `CCn1c(CCCc2ccc(-c3cccc(CC(=O)O)c3)cc2)nn(Cc2ccc(C(C)(C)C)s2)c1=O` [Example 54, 2-(4′-(3-(1-((5-(tert-Butyl)thiophen-2-yl)methyl)-4-ethyl-5-oxo-4,5-dihydro-1H-1,2,4-triazol-3-yl)propyl)-[1,1′-biphenyl]-3-yl)acetic acid]: 499 nM; `COc1ccc(-c2ccc(CCCc3nn(Cc4ccc(C(C)(C)C)cc4)c(=O)n3CC(F)(F)F)cc2)cc1CC(=O)O` [Example 55, 2-(4′-(3-(1-(4-(tert-Butyl)benzyl)-5-oxo-4-(2,2,2-trifluoroethyl)-4,5-dihydro-1H-1,2,4-triazol-3-yl)propyl)-4-methoxy-[1,1′-biphenyl]-3-yl)acetic acid]: 250 nM. On to `CCn1c(CCCc2ccc(-c3cccc(C(O)C(=O)NC4CC4)c3)cc2)nn(Cc2ccc(C(C)(C)C)cc2)c1=O` (stereo not drawn) [Example 56, 2-(4′-(3-(1-(4-(tert-Butyl)benzyl)-4-ethyl-5-oxo-4,5-dihydro-1H-1,2,4-triazol-3-yl)propyl)-[1,1′-biphenyl]-3-yl)-N-cyclopropyl-2-hydroxyacetamide], for which the IC50 is 330 nM. Turning to `CCn1c(CCCc2ccc(-c3cccc(C(=O)C(=O)NC4CC4)c3)cc2)nn(Cc2ccc(C(C)(C)C)cc2)c1=O` [Example 57, 2-(4′-(3-(1-(4-(tert-Butyl)benzyl)-4-ethyl-5-oxo-4,5-dihydro-1H-1,2,4-triazol-3-yl)propyl)-[1,1′-biphenyl]-3-yl)-N-cyclopropyl-2-oxoacetamide], the IC50 came out at 175 nM.

On to `CCn1c(CCCc2ccc(-c3ccc(OC)c(N)n3)cc2)nn(Cc2ccc(C(C)(C)C)cc2)c1=O` [Example 58, 3-{3-[4-(6-Amino-5-methoxy(2-pyridyl))phenyl]propyl}-1-{[4-(tert-butyl)phenyl]methyl}-4-ethyl-1,2,4-triazolin-5-one], for which the IC50 turned out to be 71 nM. Next, `CCn1c(CCCc2ccc(-c3ccc(OC)c(NS(=O)(=O)c4ccccc4)n3)cc2)nn(Cc2ccc(C(C)(C)C)cc2)c1=O` [Example 59, 1-{[4-(tert-Butyl)phenyl]methyl}-4-ethyl-3-[3-(4-{5-methoxy-6-[(phenylsulfonyl)amino](2-pyridyl)}phenyl)propyl]-1,2,4-triazolin-5-one]: 3 nM; `CCOc1ccc(-c2ccc(CCCc3nn(Cc4ccc(C(C)(C)C)cc4)c(=O)n3CC)cc2)nc1N` [Example 60, 3-{3-[4-(6-Amino-5-ethoxy(2-pyridyl))phenyl]propyl}-1-{[4-(tert-butyl)phenyl]methyl}-4-ethyl-1,2,4-triazolin-5-one]: 63 nM. Consider `CCSc1ccc(-c2ccc(CCCc3nn(Cc4ccc(C(C)(C)C)cc4)c(=O)n3CC)cc2)cc1CC(=O)O` [Example 61, 2-(5-{4-[3-(1-{[4-(tert-Butyl)phenyl]methyl}-4-ethyl-5-oxo(1,2,4-triazolin-3-yl))propyl]phenyl}-2-ethylthiophenyl)acetic acid], for which the IC50 is 20 nM. Next, `CCOc1ccc(-c2ccc(CCCc3nn(Cc4ccc(C(C)(C)C)cc4)c(=O)n3CC)cc2)nc1NS(=O)(=O)c1ccccc1` [Example 62, 1-{[4-(tert-Butyl)phenyl]methyl}-3-[3-(4-{5-ethoxy-6-[(phenylsulfonyl)amino](2-pyridyl)}phenyl)propyl]-4-ethyl-1,2,4-triazolin-5-one]: 5 nM; `CCn1c(CCCc2ccc(-c3ccc(OC)c(CC(=O)O)c3)cc2)nn(Cc2ccc(C3(F)COC3)cc2)c1=O` [Example 63]: 562 nM; `CCn1c(CCCc2ccc(-c3ccc(SC)c(CC(=O)O)c3)cc2)nn(Cc2ccc(C(C)(C)C)cc2)c1=O` [Example 64, 2-(5-{4-[3-(1-{[4-(tert-Butyl)phenyl]methyl}-4-ethyl-5-oxo(1,2,4-triazolin-3-yl))propyl]phenyl}-2-methylthiophenyl)acetic acid]: 38 nM. Take `CCn1c(CCCc2ccc(-c3ccc(OC)c(C(=O)O)c3)cc2)nn(Cc2ccc(C(C)(C)C)cc2)c1=O` [Example 65, 4′-(3-(1-(4-(tert-Butyl)benzyl)-4-ethyl-5-oxo-4,5-dihydro-1H-1,2,4-triazol-3-yl)propyl)-4-methoxy-[1,1′-biphenyl]-3-carboxylic acid]: the IC50 stood at 6 nM. The figure for `CCOc1ccc(-c2ccc(CCCc3nn(Cc4ccc(C(C)(C)C)cc4)c(=O)n3CC)cc2)cc1C(=O)O` [Example 66, 4′-(3-(1-(4-(tert-Butyl)benzyl)-4-ethyl-5-oxo-4,5-dihydro-1H-1,2,4-triazol-3-yl)propyl)-4-ethoxy-[1,1′-biphenyl]-3-carboxylic acid] is 3 nM; for `CCn1c(CCCc2ccc(-c3cccc(CC(=O)O)c3)cc2)nn(Cc2ccc(C(C)(C)C)c(Br)c2)c1=O` [Example 67, 2-(4′-(3-(1-(3-Bromo-4-(tert-butyl)benzyl)-4-ethyl-5-oxo-4,5-dihydro-1H-1,2,4-triazol-3-yl)propyl)-[1,1′-biphenyl]-3-yl)acetic acid] it is 88 nM. Next, `CCCn1c(CCCc2ccc(-c3ccc(OCC)c(CC(=O)O)c3)cc2)nn(Cc2ccc(C(C)(C)C)cc2)c1=O` [Example 68, 2-(4′-(3-(1-(4-(tert-Butyl)benzyl)-5-oxo-4-propyl-4,5-dihydro-1H-1,2,4-triazol-3-yl)propyl)-4-ethoxy-[1,1′-biphenyl]-3-yl)acetic acid]: 32 nM; `CCCCn1c(CCCc2ccc(-c3ccc(OCC)c(CC(=O)O)c3)cc2)nn(Cc2ccc(C(C)(C)C)cc2)c1=O` [Example 69, 2-(4′-(3-(4-Butyl-1-(4-(tert-butyl)benzyl)-5-oxo-4,5-dihydro-1H-1,2,4-triazol-3-yl)propyl)-4-ethoxy-[1,1′-biphenyl]-3-yl)acetic acid]: 24 nM.

For `CCn1c(CCCc2ccc(-c3ccc4[nH]cc(C(=O)O)c4c3)cc2)nn(Cc2ccc(C(C)(C)C)cc2)c1=O` [Example 70, 5-(4-(3-(1-(4-(tert-Butyl)benzyl)-4-ethyl-5-oxo-4,5-dihydro-1H-1,2,4-triazol-3-yl)propyl)phenyl)-1H-indole-3-carboxylic acid], the IC50 worked out at 270 nM.

Take `CCCc1ccc(S(=O)(=O)Nc2ccc(-c3ccc(CCCc4nn(Cc5ccc(C(C)(C)C)cc5)c(=O)n4CC)cc3)nc2)cc1` [Example 71, 1-{[4-(tert-Butyl)phenyl]methyl}-4-ethyl-3-{3-[4-(5-{[(4-propylphenyl)sulfonyl]amino}(2-pyridyl))phenyl]propyl}-1,2,4-triazolin-5-one]: the IC50 was found to be 865 nM.

For the molecule `CCCc1ccc(S(=O)(=O)Nc2cccc(-c3ccc(CCCc4nn(Cc5ccc(C(C)(C)C)cc5)c(=O)n4CC)cc3)n2)cc1` [Example 72, 1-{[4-(tert-Butyl)phenyl]methyl}-4-ethyl-3-{3-[4-(6-{[(4-propylphenyl)sulfonyl]amino}(2-pyridyl))phenyl]propyl}-1,2,4-triazolin-5-one], the IC50 is 208 nM. As to `CCn1c(CCCc2ccc(-c3cccc(NS(=O)(=O)c4ccc(-c5ccc(C)cc5)cc4)n3)cc2)nn(Cc2ccc(C(C)(C)C)cc2)c1=O` [Example 73, 1-{[4-(tert-Butyl)phenyl]methyl}-4-ethyl-3-(3-{4-[6-({[4-(4-methylphenyl)phenyl]sulfonyl}amino)(2-pyridyl)]phenyl}propyl)-1,2,4-triazolin-5-one], the IC50 came out at 62 nM. As for `CCn1c(CCCc2ccc(-c3cccc(NS(=O)(=O)c4ccc(-c5ccc(OC)cc5)cc4)n3)cc2)nn(Cc2ccc(C(C)(C)C)cc2)c1=O` [Example 74, 1-{[4-(tert-Butyl)phenyl]methyl}-4-ethyl-3-(3-{4-[6-({[4-(4-methoxyphenyl)phenyl]sulfonyl}amino)(2-pyridyl)]phenyl}propyl)-1,2,4-triazolin-5-one], the IC50 is 945 nM.

On to `CCn1c(CCCc2ccc(-c3ccc(NS(=O)(=O)c4ccc5c(c4)CCN5C(C)=O)cn3)cc2)nn(Cc2ccc(C(C)(C)C)cc2)c1=O` [Example 75, 1-Acetyl-5-{[(6-{4-[3-(1-{[4-(tert-butyl)phenyl]methyl}-4-ethyl-5-oxo(1,2,4-triazolin-3-yl))propyl]phenyl}(3-pyridyl))amino]sulfonyl}indoline], for which the IC50 was determined as 207 nM.
